Test results reported in ChEMBL document CHEMBL1240404, “Rapamycin protects mice from staphylococcal enterotoxin B-induced toxic shock and blocks cytokine release in vitro and in vivo” (Antimicrob Agents Chemother, 2010).
Active and inactive are the calls of the source. The calls are words filed in the database; no cut-off is given here.

Experiments:
Mus musculus [1] = assay: Protection against SEB-induced toxicity in C3H/HeJ mouse assessed as lethality at 1.2 mg/kg, in administered at 5 hrs after SEB challenge followed by 5 mg/kg, ip infusion after 24 to 96 hrs of SEB exposure; format: functional
PBMC [2] = assay: Cytotoxicity against human PBMC at 10 ug/ml after 48 hrs by [3H]thymidine incorporation assay; format: cell-based
PBMC [3] = assay: Inhibition of SEB-induced proliferation of human PBMC at 6.9 ug/ml after 3 hrs by [3H]thymidine incorporation assay; format: functional
PBMC [4] = assay: Inhibition of SEB-induced proliferation of human PBMC after 48 hrs by [3H]thymidine incorporation assay; format: functional, cell-based
Mus musculus [5] = assay: Protection against SEB-induced toxicity in C3H/HeJ mouse assessed as survival rate at 0.7 mg/kg, in administered at 4 hrs after SEB challenge followed by 1.6 mg/kg, ip infusion after 24 to 96 hrs of SEB exposure; format: functional
PBMC [6] = assay: cells; format: functional; settings: Homo sapiens, 48 h
PBMC [7] = assay: Inhibition of SEB-induced proliferation of human PBMC at 6.9 ug/ml after 48 hrs by [3H]thymidine incorporation assay; format: functional
PBMC [8] = assay: cells; format: functional; settings: Homo sapiens, 48 h; remark: listed apart in the source
Mus musculus [9] = assay: Protection against SEB-induced toxicity in C3H/HeJ mouse assessed as appearance of ruffled fur and lethargy at 0.7 mg/kg, in administered at 72 hrs after SEB challenge followed by 1.6 mg/kg, ip infusion after 30 to 96 hrs of SEB exposure; format: functional, organism-based
Mus musculus [10] = assay: Protection against SEB-induced toxicity in C3H/HeJ mouse assessed as survival rate at 0.7 mg/kg, in administered at 3 hrs after SEB challenge followed by 1.6 mg/kg, ip infusion after 24 to 96 hrs of SEB exposure; format: functional
PBMC [11] = assay: cells; format: functional; settings: Homo sapiens, 48 h; remark: listed apart in the source
[12] = Drug level in C3H/HeJ mouse blood at 0.7 mg/kg, in administered at 2 and 5 hrs followed by 1.6 mg/kg, ip infusion at 30, 48, 72 and 96 hrs measured at 97 hrs; format: ADME, organism-based; settings: read-out: Drug uptake
[13] = Drug level in C3H/HeJ mouse blood at 0.7 mg/kg, in after 1 hr; format: ADME, organism-based; set-up: dose 0.7 mg/kg; settings: inhaled or intranasal, read-out: Drug uptake
PBMC [14] = assay: cells; format: functional; settings: Homo sapiens, 48 h; remark: listed apart in the source
PBMC [15] = assay: cells; format: functional; settings: Homo sapiens, 48 h; remark: listed apart in the source
PBMC [16] = assay: cells; format: functional; settings: Homo sapiens, 48 h; remark: listed apart in the source
Mus musculus [17] = assay: Protection against SEB-induced toxicity in C3H/HeJ mouse assessed as attenuation of hypothermic response at 0.7 mg/kg, in administered at 42 hrs after SEB challenge followed by 1.6 mg/kg, ip infusion after 30 to 96 hrs of SEB exposure; format: functional
PBMC [18] = assay: cells; format: functional; settings: Homo sapiens, 48 h; remark: listed apart in the source
Mus musculus [19] = assay: Protection against SEB-induced toxicity in C3H/HeJ mouse assessed as survival rate at 1.2 mg/kg, in administered at 2 hrs after SEB challenge followed by 5 mg/kg, ip infusion after 24 to 96 hrs of SEB exposure; format: functional
Mus musculus [20] = assay: Protection against SEB-induced toxicity in C3H/HeJ mouse assessed as survival rate at 0.7 mg/kg, in administered at 5 hrs after SEB challenge followed by 1.6 mg/kg, ip infusion after 24 to 96 hrs of SEB exposure; format: functional
[21] = Drug level in C3H/HeJ mouse blood at 0.03 mg/kg, in administered at 2 and 5 hrs followed by 0.08 mg/kg, ip infusion at 30, 48, 72 and 96 hrs measured at 97 hrs; format: ADME, organism-based; settings: read-out: Drug uptake
Mus musculus [22] = assay: Antiinflammatory activity in C3H/HeJ mouse assessed as reduction in SEB-induced increase in serum IL-6 level at 0.7 mg/kg, in after 5 hrs; format: functional, organism-based; set-up: dose 0.7 mg/kg
Mus musculus [23] = assay: Inhibition of SEB-induced weight loss in C3H/HeJ mouse assessed as weight gain at 0.7 mg/kg, in measured after 150 hrs of SEB challenge; format: functional
Mus musculus [24] = assay: Protection against SEB-induced toxicity in C3H/HeJ mouse assessed as survival rate at 0.7 mg/kg, in administered at 2 hrs after SEB challenge followed by 1.6 mg/kg, ip infusion after 24 to 96 hrs of SEB exposure; format: functional
Mus musculus [25] = assay: Antiinflammatory activity in C3H/HeJ mouse assessed as reduction in SEB-induced increase in serum IL-6 level at 0.7 mg/kg, in after 75 hrs; format: functional, organism-based; set-up: dose 0.7 mg/kg
Mus musculus [26] = assay: Antiinflammatory activity in C3H/HeJ mouse assessed as reduction in SEB-induced increase in serum IL-6 level at 0.7 mg/kg, in after 51 hrs; format: functional, organism-based; set-up: dose 0.7 mg/kg
Mus musculus [27] = assay: Protection against SEB-induced toxicity in C3H/HeJ mouse assessed as attenuation of hypothermic response at 0.7 mg/kg, in administered at 24 hrs after SEB challenge followed by 1.6 mg/kg, ip infusion after 30 to 96 hrs of SEB exposure; format: functional, organism-based
Mus musculus [28] = assay: Protection against SEB-induced toxicity in C3H/HeJ mouse assessed as attenuation of hypothermic response at 0.7 mg/kg, in administered at 5 hrs after SEB challenge; format: functional, organism-based; set-up: dose 0.7 mg/kg
Mus musculus [29] = assay: Antiinflammatory activity in C3H/HeJ mouse assessed as reduction in SEB-induced increase in serum IL-6 level at 0.7 mg/kg, in after 24 hrs; format: functional, organism-based; set-up: dose 0.7 mg/kg
Mus musculus [30] = assay: Inhibition of SEB-induced weight loss in C3H/HeJ mouse assessed as weight gain at 0.7 mg/kg, in administered at 24 hrs after SEB challenge followed by 1.6 mg/kg, ip infusion after 30 to 96 hrs of SEB exposure; format: functional, organism-based
Mus musculus [31] = assay: Protection against SEB-induced toxicity in C3H/HeJ mouse assessed as survival rate at 1.2 mg/kg, in administered at 5 hrs after SEB challenge followed by 5 mg/kg, ip infusion after 24 to 96 hrs of SEB exposure; format: functional
PBMC [32] = assay: Inhibition of SEB-induced proliferation of human PBMC at 0.69 ug/ml after 48 hrs by [3H]thymidine incorporation assay; format: functional

## C[C@@H]1C[C@H]2[C@@H]3CCC4=CC(=O)C=C[C@]4(C)[C@@]3(F)[C@@H](O)C[C@]2(C)[C@@]1(O)C(=O)CO [DEXAMETHASONE]
Mus musculus [1]
  Activity: 90%

## CO[C@H]1C[C@@H]2CC[C@@H](C)[C@@](O)(O2)C(=O)C(=O)N2CCCC[C@H]2C(=O)O[C@H]([C@H](C)C[C@@H]2CC[C@@H](O)[C@H](OC)C2)CC(=O)[C@H](C)/C=C(\C)[C@@H](O)[C@@H](OC)C(=O)[C@H](C)C[C@H](C)/C=C/C=C/C=C/1C [SIROLIMUS]
PBMC [2]
  Activity: Non-toxic
PBMC [3]
  inhibition at 6.9 µg/mL: 40%
PBMC [4]
  inhibition: Dose-dependent effect
Mus musculus [5]
  Activity: 100%
PBMC [6]
  inhibition at 0.0069 µg/mL: 34%
PBMC [7]
  inhibition at 6.9 µg/mL: 94%
PBMC [8]
  inhibition at 6.9 µg/mL: 100%
Mus musculus [9]
  Activity: Active
Mus musculus [10]
  Activity: 100%
PBMC [11]
  inhibition at 6.9 µg/mL: 100%
[12]
  concentration at 97 h: 622 ng/mL
[13]
  concentration at 1 h: 492 ng/mL
PBMC [14]
  inhibition at 6.9 µg/mL: 97%
PBMC [15]
  inhibition at 6.9 µg/mL: 67%
PBMC [16]
  inhibition at 6.9 µg/mL: 77%
Mus musculus [17]
  Activity: 20%
PBMC [18]
  inhibition at 0.0069 µg/mL: 36%
Mus musculus [19]
  Activity: 100%
Mus musculus [20]
  Activity: 100%
[21]
  concentration at 97 h: 38 ng/mL
Mus musculus [22]
  inhibition: inactive
Mus musculus [23]
  inhibition in vivo at 0.7 mg/kg: 8%
Mus musculus [24]
  Activity: 100%
Mus musculus [25]
  inhibition: Active
Mus musculus [26]
  inhibition: Active
Mus musculus [27]
  Activity: Active
Mus musculus [28]
  Activity: Active
Mus musculus [29]
  inhibition: Active
Mus musculus [30]
  inhibition: Active
Mus musculus [31]
  Activity: 10%
PBMC [32]
  inhibition at 0.69 µg/mL: 56%
